PMC12280925, “Structure-based discovery of positive allosteric modulators of the A1 adenosine receptor” (Proceedings of the National Academy of Sciences of the …, 2025)
Residue numbers refer to the chain shown, from its start.

Key:
[1] = molecular target: T1, A1R S246^6.47A mutant (Homo sapiens, UniProt P30542, S246A); parameters: method as in PMID 34497422; conditions: cited from earlier work
T1 construct: expressed in transfected cells; host or cells: FlpInCHO cells, stably transfected
T1 sequence (P30542 1-326 S246A): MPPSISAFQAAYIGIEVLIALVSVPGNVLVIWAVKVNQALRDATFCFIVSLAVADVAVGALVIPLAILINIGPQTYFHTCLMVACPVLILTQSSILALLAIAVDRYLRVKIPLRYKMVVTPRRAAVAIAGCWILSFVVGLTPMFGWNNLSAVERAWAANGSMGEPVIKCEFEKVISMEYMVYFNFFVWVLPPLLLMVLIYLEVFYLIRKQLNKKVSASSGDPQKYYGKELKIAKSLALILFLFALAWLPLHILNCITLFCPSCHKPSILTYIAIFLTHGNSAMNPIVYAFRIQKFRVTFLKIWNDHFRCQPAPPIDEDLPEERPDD

[2] = parameters: method as in PMID 34497422; conditions: in vitro liver microsome assays; cited from earlier work
[3] = molecular target: T2, A1R (A1R-FlpInCHO cells) (Homo sapiens, UniProt P30542); experiment: NECA/allosteric ligand interaction in cAMP accumulation, operational model of allosterism; type: cell-based
T2 sequence (P30542 1-326): T1 sequence (P30542 1-326 S246A) with A246S
Method: (§1) FlpInCHO cell lines and cortical neuron cells were seeded into transparent 96-well plates at 20,000 cells/well and incubated for 16 to 20 h in a humidified incubator at 37 °C in 5% CO2. […] Compounds were added at either a single concentration (10 or 30 μM) or a concentration range for full interaction studies (3 to 30 μM), and plates were incubated for 30 to 60 min at 37 °C in a humidified chamber. […] After 30 min incubation at 37 °C, the reaction was terminated by rapid removal of buffer and the addition of 50 μL/well cold ethanol. […] Agonist concentration–response curves were normalized to the response mediated by 3 µM forskolin […].
[5] E=EmτAAKB+αβ[B]+τB[B]KA^n/AKB+KAKB+[B]KA+α[A][B]^n+τAAKB+αβ[B]+τB[B]KA^n
Orthosteric agonist and allosteric ligand affinity were constrained to values determined from radioligand binding.

[4] = parameters: method as in PMID 34497422; conditions: rat model; cited from earlier work
[5] = molecular target: T2, A1R (A1R-FlpInCHO cells); experiment: Inhibition of forskolin-stimulated cAMP accumulation: NECA potency ± compound and compound alone; type: cell-based
Method: as §1
Response=Basal+Emax-Basal×A/EC50+A,

[6] = molecular target: T3, A1R allosteric site (A1R-FlpINCHO cells, wild type) (Homo sapiens, UniProt P30542); experiment: Whole-cell [3H]DPCPX interaction binding with NECA, allosteric ternary complex model
T3 sequence (P30542 1-326): T1 sequence (P30542 1-326 S246A) with A246S
Method: [^3H]DPCPX (8-cyclopentyl-1,3-dipropylxanthine, [dipropyl-2,3-^3H(N)]) whole-cell binding assays were performed on FlpINCHO cells stably expressing either WT (nontagged or 3xHA-tagged) or mutant 3xHA-A1R. Cells were seeded into a transparent 96-well plate at 40,000 cells/well in DMEM containing 10% FBS. Following 8 h incubation in a humidified environment at 37 °C in 5% CO2, cells were washed and maintained in serum-free DMEM for approximately 18 h at 37 °C in 5% CO2. […] Assays were terminated by washing twice with 100 μL/well cold phosphate-buffered saline, followed by the addition of 100 μL OptiPhase Supermix™ scintillation cocktail and bound radioactivity measured using a MicroBeta^2 ™ plate counter (PerkinElmer).
Equilibrium binding interaction experiments were fitted to the following allosteric ternary complex model.[3] Y=BmaxA/A+KAKB/αAB+KB1+[I]/KI+[B]/KB+αII[B]/KIKB,
A cooperativity factor α > 1 describes positive cooperativity; a value 0 < α < 1 describes negative cooperativity, and a value of α = 1 describes neutral cooperativity.

[7] = molecular target: T4, A1R G279^7.44A mutant (Homo sapiens, UniProt P30542, G279A); parameters: method as in PMID 34497422; conditions: cited from earlier work
T4 construct: expressed in transfected cells; host or cells: FlpInCHO cells, stably transfected
T4 sequence (P30542 1-326 G279A): T1 sequence (P30542 1-326 S246A) with A246S, G279A

In the case of `Nc1scc(-c2cc(C(F)(F)F)cc(C(F)(F)F)c2)c1C(=O)c1ccc(Cl)cc1` [compound 1, reference compound], the “effect of binding site mutation on affinity” value [1] is given as “small (four- to seven-fold) but significant reduction”, the “metabolism in liver microsomes” value [2] is given as “rapid metabolism” and the “allosteric ligand efficacy (logτB)” value ([3]; allosteric agonism in cAMP) is given as 0.56 ± 0.06. For the same molecule, the “functional cooperativity with NECA (logαβ)” value ([3]; cAMP) was 0.78 ± 0.15, the “in vivo analgesic efficacy” value [4] was “in vivo analgesic efficacy” and the “inhibition of 3 μM forskolin-stimulated cAMP accumulation” value ([5]; 30 μM compound in the absence of NECA, for NECA: maximal response) was 83%. For the same molecule, the “functional response relative to NECA maximal response” value ([5]; 30 μM, absence of NECA) was “approximately 80%”, the “allosteric ligand affinity (pKB)” value ([6]; allosteric ternary complex model, n = 4) was 5.18 ± 0.21 and the “binding cooperativity with NECA (logα)” value ([6]; allosteric ternary complex model, orthosteric agonist NECA) was 2.09 ± 0.22. The “positive cooperativity between PAM and NECA” value ([6]; approximate, from logα) was “approximately 100 fold”, the Kd ([6]; approximate, from pKB, read-out: affinity for the A1R allosteric site) was ~8 µM and the “effect of binding site mutation on affinity” value [7] was “small (four- to seven-fold) but significant reduction”.
